Test results taken from patent US6777425B2, “Isoquinoline compounds having antiinfective activity” (Genesoft Pharmaceuticals, Inc., priority 2001, dated 2004).

Columns and labels:
B. cereus ATCC 11778 = experiment: NCCLS broth microdilution MIC, B. cereus; format: cell-based, Bacillus cereus; settings: organism A = B. cereus ATCC 11778
Source text: (§1) Compounds according to this invention were screened for their in vitro activities against selected species of bacteria and fungi. […]

C. albicans ATCC 38247 = experiment: Antifungal MIC, C. albicans; format: cell-based, Candida albicans; settings: organism B = C. albicans ATCC 38247
Source text: as §1

E. faecalis ATCC 29212 = experiment: NCCLS broth microdilution MIC, E. faecalis; format: cell-based; settings: organism C = E. faecalis ATCC 29212
Source text: as §1

S. pneumoniae ATCC 49619 = experiment: NCCLS broth microdilution MIC, S. pneumoniae ATCC 49619; format: cell-based, Streptococcus pneumoniae; settings: organism H = S. pneumoniae ATCC 49619
Source text: as §1

S. aureus ATCC 13709 = experiment: NCCLS broth microdilution MIC, S. aureus (MSSA); format: cell-based, Staphylococcus aureus; settings: organism E = S. aureus ATCC 13709 (MSSA)
Source text: as §1

S. aureus ATCC 27660 = experiment: NCCLS broth microdilution MIC, S. aureus (MRSA); format: cell-based, Staphylococcus aureus; settings: organism F = S. aureus ATCC 27660 (MRSA)
Source text: as §1

[1] = Staphylococcus aureus, read-out: Minimum Inhibitory Concentration (MIC)

Minimum Inhibitory Concentration (MIC) (B. cereus ATCC 11778)	Minimum Inhibitory Concentration (MIC) (C. albicans ATCC 38247)	Minimum Inhibitory Concentration (MIC) (E. faecalis ATCC 29212)	Minimum Inhibitory Concentration (MIC) (S. pneumoniae ATCC 49619)	Minimum Inhibitory Concentration (MIC) (S. aureus ATCC 13709)	Minimum Inhibitory Concentration (MIC) (S. aureus ATCC 27660)	MIC (B. cereus ATCC 11778; Bacillus cereus, ATCC11778, read-out: Minimum Inhibitory Concentration (MIC)) [µg/mL]	MIC (C. albicans ATCC 38247; Candida albicans, ATCC38247, read-out: Minimum Inhibitory Concentration (MIC)) [µg/mL]	MIC (E. faecalis ATCC 29212; Enterococcus faecalis, ATCC29212, read-out: Minimum Inhibitory Concentration (MIC)) [µg/mL]	MIC (S. aureus ATCC 13709; [1]) [µg/mL]	MIC (S. aureus ATCC 27660; [1]) [µg/mL]	MIC (S. pneumoniae ATCC 49619; Streptococcus pneumoniae, ATCC49619, read-out: Minimum Inhibitory Concentration (MIC)) [µg/mL]	SMILES
+++ (+++ = MIC ≦ 4)	>32 µg/mL	+++ (+++ = MIC ≦ 4)	+++ (+++ = MIC ≦ 4)									Cn1cc(NC(=O)c2cc(NC(=O)c3cc(NC(=O)c4nccc5ccccc45)cn3C)cn2C)cc1C(=O)NCCN1CCOCC1 [Ib-1]
+++ (+++ = MIC ≦ 4)	>32 µg/mL	+++ (+++ = MIC ≦ 4)	+++ (+++ = MIC ≦ 4)	+++ (+++ = MIC ≦ 4)	+++ (+++ = MIC ≦ 4)							CCN(CC)CCNC(=O)c1cc(NC(=O)c2cc(NC(=O)c3cc(NC(=O)c4cc5ccccc5cn4)cn3C)cn2C)sn1 [Ib-53]
+++ (+++ = MIC ≦ 4)	>32 µg/mL	+++ (+++ = MIC ≦ 4)	+++ (+++ = MIC ≦ 4)	+++ (+++ = MIC ≦ 4)	+++ (+++ = MIC ≦ 4)							Cn1cc(NC(=O)c2cc(NC(=O)c3cc(NC(=O)c4cc5ccccc5cn4)cn3C)cn2CCN2CCOCC2)cc1C(=O)NCCN1CCOCC1 [Ib-57]
>32 µg/mL	>32 µg/mL	+++ (+++ = MIC ≦ 4)	+++ (+++ = MIC ≦ 4)	++ (++ = 4 < MIC < 12)	>32 µg/mL							Cn1cc(NC(=O)c2cc3ccccc3cn2)cc1C(=O)Nc1cc(C(=O)Nc2cn(C)c(C(=O)NCCN3CCOCC3)n2)n(C)c1 [Ib-58]
>32 µg/mL	>32 µg/mL	+++ (+++ = MIC ≦ 4)	+++ (+++ = MIC ≦ 4)	+ (+ = 12 ≦ MIC ≦ 32)	+++ (+++ = MIC ≦ 4)							Cn1cc(NC(=O)c2cc(NC(=O)c3cc4ccccc4cn3)no2)cc1C(=O)OCCN1CCOCC1 [Ib-61]
+++ (+++ = MIC ≦ 4)	>32 µg/mL	+++ (+++ = MIC ≦ 4)	+++ (+++ = MIC ≦ 4)	++ (++ = 4 < MIC < 12)	+++ (+++ = MIC ≦ 4)							Cn1cc(NC(=O)c2cc(NC(=O)c3cc(NC(=O)c4cc5ccccc5cn4)c[nH]3)cn2C)cc1C(=O)NCCN1CCCCC1 [Ib-62]
+++ (+++ = MIC ≦ 4)	>32 µg/mL	+++ (+++ = MIC ≦ 4)	+++ (+++ = MIC ≦ 4)	+++ (+++ = MIC ≦ 4)	+++ (+++ = MIC ≦ 4)							Cc1cc(NC(=O)c2cc(NC(=O)c3cc(NC(=O)c4cc5ccccc5cn4)cn3C)cn2CCN2CCOCC2)sn1 [Ib-63]
+++ (+++ = MIC ≦ 4)	>32 µg/mL	+++ (+++ = MIC ≦ 4)	+++ (+++ = MIC ≦ 4)	+++ (+++ = MIC ≦ 4)	+++ (+++ = MIC ≦ 4)							Cc1cc(NC(=O)c2cc(NC(=O)c3cc(NC(=O)c4cc5ccccc5cn4)cn3C)cn2CCN2CCCC2)sn1 [Ib-65]
+++ (+++ = MIC ≦ 4)	>32 µg/mL	+++ (+++ = MIC ≦ 4)	+++ (+++ = MIC ≦ 4)	+++ (+++ = MIC ≦ 4)	+++ (+++ = MIC ≦ 4)							Cn1cc(NC(=O)c2cc(NC(=O)c3cc(NC(=O)c4cc5ccccc5cn4)c[nH]3)cn2C)cc1C(=O)NCCc1ccccn1 [Ib-69]
+++ (+++ = MIC ≦ 4)	>32 µg/mL	+++ (+++ = MIC ≦ 4)	+++ (+++ = MIC ≦ 4)	+++ (+++ = MIC ≦ 4)	+++ (+++ = MIC ≦ 4)							Cn1cc(NC(=O)c2cc(NC(=O)c3cc(NC(=O)c4cc5ccccc5cn4)c[nH]3)cn2C)cc1C(=O)NCCN1CCC(F)CC1 [Ib-71]
+++ (+++ = MIC ≦ 4)	>32 µg/mL	+++ (+++ = MIC ≦ 4)	+++ (+++ = MIC ≦ 4)	+++ (+++ = MIC ≦ 4)	+++ (+++ = MIC ≦ 4)							COCn1cc(NC(=O)c2cc3ccccc3cn2)cc1C(=O)Nc1cc(C(=O)Nc2cc(C(=O)NCCN3CCOCC3)n(C)c2)n(C)c1 [Ib-72]
+++ (+++ = MIC ≦ 4)	+++ (+++ = MIC ≦ 4)	+++ (+++ = MIC ≦ 4)	+++ (+++ = MIC ≦ 4)	+++ (+++ = MIC ≦ 4)	+++ (+++ = MIC ≦ 4)							CN(C)CCSCCn1cc(NC(=O)c2cc3ccccc3cn2)cc1C(=O)Nc1cc(C(=O)Nc2ccc3cnccc3c2)n(C)c1 [Ib-73]
>32 µg/mL	>32 µg/mL	>32 µg/mL	>32 µg/mL	>32 µg/mL	>32 µg/mL							CC(=O)[O-].Cc1cc(NC(=O)c2cc(NC(=O)c3cc(NC(=O)c4cc5ccccc5cn4)cn3C)cn2CCC[N+](C)(C)C)sn1 [Ib-74]
						< 4	> 32	< 4	< 4	< 4	< 4	Cn1cc(NC(=O)c2cc(NC(=O)c3cc(NC(=O)c4cc5ccccc5cn4)c[nH]3)cn2C)cc1C(=O)NCCN1CCSCC1 [Ib-75]
+++ (+++ = MIC ≦ 4)	>32 µg/mL	+++ (+++ = MIC ≦ 4)	+++ (+++ = MIC ≦ 4)	+++ (+++ = MIC ≦ 4)	+++ (+++ = MIC ≦ 4)							Cn1cc(NC(=O)c2cc(NC(=O)c3cc(NC(=O)c4cc5ccccc5cn4)c[nH]3)cn2C)cc1C(=O)NCCc1ccncc1 [Ib-76]
+++ (+++ = MIC ≦ 4)	>32 µg/mL	+++ (+++ = MIC ≦ 4)	+++ (+++ = MIC ≦ 4)	+++ (+++ = MIC ≦ 4)	+++ (+++ = MIC ≦ 4)							Cc1cc(NC(=O)c2cc(NC(=O)c3nc(NC(=O)c4cc5ccccc5cn4)cn3C)cn2CCN2CCOCC2)sn1 [Ib-77]
+++ (+++ = MIC ≦ 4)	>32 µg/mL	+++ (+++ = MIC ≦ 4)	+++ (+++ = MIC ≦ 4)	+++ (+++ = MIC ≦ 4)	+++ (+++ = MIC ≦ 4)							CN(C)CCSCCn1cc(NC(=O)c2cc3ccccc3cn2)cc1C(=O)Nc1cc(C(=O)Nc2cc(C(=O)NCCN3CCOCC3)n(C)c2)n(C)c1 [Ib-79]
+++ (+++ = MIC ≦ 4)	+++ (+++ = MIC ≦ 4)	+++ (+++ = MIC ≦ 4)	+++ (+++ = MIC ≦ 4)	+++ (+++ = MIC ≦ 4)	+++ (+++ = MIC ≦ 4)							CN(C)CCSCCn1cc(NC(=O)c2cc3ccccc3cn2)cc1C(=O)Nc1cc(C(=O)Nc2cc(C(=O)NCCN3CCSCC3)n(C)c2)n(C)c1 [Ib-80]
+++ (+++ = MIC ≦ 4)	+ (+ = 12 ≦ MIC ≦ 32)	+++ (+++ = MIC ≦ 4)	+++ (+++ = MIC ≦ 4)	+++ (+++ = MIC ≦ 4)	+++ (+++ = MIC ≦ 4)							CN(C)CCCn1cc(NC(=O)c2cc(NC(=O)c3cc4ccccc4cn3)cn2C)cc1C(=O)Nc1cc(C(=O)NCCN2CCOCC2)n(C)c1 [Ib-81]
+++ (+++ = MIC ≦ 4)	+ (+ = 12 ≦ MIC ≦ 32)	+++ (+++ = MIC ≦ 4)	+++ (+++ = MIC ≦ 4)	+++ (+++ = MIC ≦ 4)	+++ (+++ = MIC ≦ 4)							CN(C)CCCn1cc(NC(=O)c2cc(NC(=O)c3cc4ccccc4cn3)c[nH]2)cc1C(=O)Nc1cc(C(=O)NCCN2CCOCC2)n(C)c1 [Ib-82]
